Key:
IL-6 [1] = experiment: AGE (G-HSA)-induced inflammatory response determined by IL-6 ELISA in HAEC; type: cell-based, human; conditions: Homo sapiens; for activity at 10 µM: 24 h, Compds tested @ 10 uM, IL6, read-out: % IL6 production compare to AGE stimulation of IL6 (100%); for IC50: IL6, unit inferred, read-out: IC50 (AGE stimulation of IL6)
Method: Human aortic endothelial cells (HAEC, Clonetics) were cultured according to manufacturer in growth medium (Clonetics): basal medium containing human epidermal growth factor, hydrocortisone, vascular endothelial growth factor, heparin binding growth factor-B, long R3-insulin-like growth factor-1, ascorbic acid, gentamicin/amphotericin and 5% FBS. These cell were allowed to reach at least 90% confluency before subjected to experimental treatments. […] Tumor necrosis factor α was from R&D Systems.
All treatments, compound-added and controls were carried out in serum free media containing 0.2% albumin. Media from all conditions were collected and used for IL-6 ELISA.
(§1) IL-6 ELISA was carried out using human IL-6 DuoSet ELISA development kit as described by manufacturer (R&D Systems). Mouse anti-human Il-6 was used as the capture antibody (2 ug/ml) and biotinylated goat anti-human IL-6 (200 ng/ml) was used as the detection antibody. Culture media were incubated with capture antibody (in 96 well) for 2 h at room temperature. Wells were washed three times with wash buffer (0.05% tween-20 in phosphate buffered saline (PBS) pH 7.4) followed by incubation with detection antibody for 2 h at room temperature. Following three washes wells were incubated with Streptavidin-HRP for 20 min. Color development was read at 450 nm in a Microplate reader.

IL-6 [2] = experiment: TNF-α-induced IL-6 production determined by IL-6 ELISA in HAEC; type: cell-based, human; conditions: Homo sapiens, HAEC, IL6; for activity at 10 µM: 24 h, Compds tested @ 10 uM, read-out: % IL6 production compare to TNF stimulation of IL6 (100%); for IC50: unit inferred, read-out: IC50 (TNF stimulation of IL6)
Method: Human aortic endothelial cells (HAEC, Clonetics) were cultured according to manufacturer in growth medium (Clonetics): basal medium containing human epidermal growth factor, hydrocortisone, vascular endothelial growth factor, heparin binding growth factor-B, long R3-insulin-like growth factor-1, ascorbic acid, gentamicin/amphotericin and 5% FBS. These cell were allowed to reach at least 90% confluency before subjected to experimental treatments. Glycated human serum albumin (G-HSA) was from US Biologicals. Tumor necrosis factor α was from R&D Systems.
[…] All treatments, compound-added and controls were carried out in serum free media containing 0.2% albumin. Media from all conditions were collected and used for IL-6 ELISA.
as §1

Row | Compound | activity at 10 µM (IL-6 [1]) [%] | activity at 10 µM (IL-6 [2]) [%] | IC50 (IL-6 [1]) [µM] | IC50 (IL-6 [2]) [µM]
1 | CCN1CCCC1CNc1nc(NCc2ccco2)nc(Nc2ccc(OC)c(F)c2)n1 (stereo not drawn) [Compound 66, N^2-[(1-ethyl-2-pyrrolidinyl)methyl]-N^4-(3-fluoro-4-methoxyphenyl)-N^6-(2-furylmethyl)-1,3,5-triazine-2,4,6-triamine] | 23 | 1 |  | 
2 | CCN1CCCC1CNc1nc(NCC2CCCCC2)nc(Nc2ccc(OC)c(F)c2)n1 (stereo not drawn) [Compound 65, N^2-(cyclohexylmethyl)-N^4-[(1-ethyl-2-pyrrolidinyl)methyl]-N^6-(3-fluoro-4-methoxyphenyl)-1,3,5-triazine-2,4,6-triamine] | 45 | 1 | 3.24 | 6.7
3 | CCN1CCCC1CNc1nc(NCC2CCCN2CC)nc(Nc2ccc(OC)c(F)c2)n1 (stereo not drawn) [Compound 70, N^2,N^4-bis[(1-ethyl-2-pyrrolidinyl)methyl]-N^6-(3-fluoro-4-methoxyphenyl)-1,3,5-triazine-2,4,6-triamine] | 35 | 1 |  | 
4 | CCN1CCCC1CNc1nc(NCCN2CCCCC2)nc(Nc2ccc(OC)c(F)c2)n1 (stereo not drawn) [Compound 71, N^2-[(1-ethyl-2-pyrrolidinyl)methyl]-N^4-(3-fluoro-4-methoxyphenyl)-N^6-[2-(1-piperidinyl)ethyl]-1,3,5-triazine-2,4,6-triamine] | 29 | 1 |  | 
5 | CCN1CCCC1CNc1nc(Nc2ccc(OC)c(F)c2)nc(N2CCN(CC(=O)N3CCCC3)CC2)n1 (stereo not drawn) [Compound 69, N^2-[(1-ethyl-2-pyrrolidinyl)methyl]-N^4-(3-fluoro-4-methoxyphenyl)-N^6-{4-[2-oxo-2-(1-pyrrolidinyl)ethyl]-1-piperazinyl}-1,3,5-triazine-2,4-diamine] | 5 | 1 |  | 
6 | CCN1CCCC1CNc1nc(Nc2ccc(NC(C)=O)cc2)nc(NC2CCCCCC2)n1 (stereo not drawn) [Compound 29, N-{4-[(4-(cycloheptylamino)-6-{[(1-ethyl-2-pyrrolidinyl)methyl]amino}-1,3,5-triazin-2-yl)-amino]phenyl}acetamide] | 7 | 13 |  | 
7 | CCN1CCCC1CNc1nc(Nc2ccccn2)nc(NC2CCCCCC2)n1 (stereo not drawn) [Compound 34, N^2-cycloheptyl-N^4-[(1-ethyl-2-pyrrolidinyl)methyl]-N^6-(2-pyridinyl)-1,3,5-triazine-2,4,6-triamine] | 1 | 3 |  | 
8 | CCN1CCCC1CNc1nc(Nc2cccc(NC(C)=O)c2)nc(NC2CCCCCC2)n1 (stereo not drawn) [Compound 30, N-{3-[(4-(cycloheptylamino)-6-{[(1-ethyl-2-pyrrolidinyl)methyl]amino}-1,3,5-triazin-2-yl)-amino]phenyl}acetamide] | 17 | 9 |  | 
9 | CCN1CCCC1CNc1nc(NCc2ccccc2)nc(Nc2ccc(OC)c(F)c2)n1 (stereo not drawn) [Compound 53, N^2-benzyl-N^4-[(1-ethyl-2-pyrrolidinyl)methyl]-N^6-(3-fluoro-4-methoxyphenyl)-1,3,5-triazine-2,4,6-triamine] | 32 | 1 |  | 
10 | CCN1CCCC1CNc1nc(Nc2ccc(OC)c(F)c2)nc(N2CCN(Cc3ccc4c(c3)OCO4)CC2)n1 (stereo not drawn) [Compound 72, N^6-[4-(1,3-benzodioxol-5-ylmethyl)-1-piperazinyl]-N^2-[(1-ethyl-2-pyrrolidinyl)methyl]-N^4-(3-fluoro-4-methoxyphenyl)-1,3,5-triazine-2,4-diamine] | 31 | 5 |  | 
11 | CCN1CCCC1CNc1nc(NCCCn2ccnc2)nc(Nc2ccc(OC)c(F)c2)n1 (stereo not drawn) [Compound 75, N^2-[(1-ethyl-2-pyrrolidinyl)methyl]-N^4-(3-fluoro-4-methoxyphenyl)-N^6-[3-(1H-imidazol-1-yl)propyl]-1,3,5-triazine-2,4,6-triamine] | 46 | 43 |  | 
12 | CCN1CCCC1CNc1nc(Nc2ccc(OC)c(F)c2)nc(N2CCN(c3ccccn3)CC2)n1 (stereo not drawn) [Compound 73, N^2-[(1-ethyl-2-pyrrolidinyl)methyl]-N^4-(3-fluoro-4-methoxyphenyl)-N^6-[4-(2-pyridinyl)-1-piperazinyl]-1,3,5-triazine-2,4-diamine] | 20 | 1 | 7.5 | 8.7
13 | CCOc1ccc(Nc2nc(NCC3CCCN3CC)nc(NC3CCCCCC3)n2)cc1 (stereo not drawn) [Compound 32, N^2-cycloheptyl-N^4-(4-ethoxyphenyl)-N^6-[(1-ethyl-2-pyrrolidinyl)methyl]-1,3,5-triazine-2,4,6-triamine] | 1 |  |  | 
14 | CCN1CCCC1CNc1nc(NC2CCCCCC2)nc(N(C)c2ccccc2C(F)(F)F)n1 (stereo not drawn) [Compound 46, N^2-cycloheptyl-N^4-[(1-ethyl-2-pyrrolidinyl)methyl]-N^6-methyl-N^6-[2-(trifluoromethyl)phenyl]-1,3,5-triazine-2,4,6-triamine] | 3 |  |  | 
15 | COc1ccc(Nc2nc(NCCCN3CCCC3=O)nc(NC3CCCCCC3)n2)cc1F [Compound 99, 1-[3-({4-(cycloheptylamino)-6-[(3-fluoro-4-methoxyphenyl)amino]-1,3,5-triazin-2-yl}amino)propyl]-2-pyrrolidinone] | 8 | 39 | 6.04 | 
16 | CCN1CCCC1CNc1nc(Nc2scc(C)c2C(N)=O)nc(NC2CCCCCC2)n1 (stereo not drawn) [Compound 39, 2-[(4-(cycloheptylamino)-6-{[(1-ethyl-2-pyrrolidinyl)methyl]amino}-1,3,5-triazin-2-yl)-amino]-4-methyl-3-thiophenecarboxamide] | 28 |  |  | 
17 | CCN1CCCC1CNc1nc(Nc2ccc(N3CCOCC3)cc2)nc(NC2CCCCCC2)n1 (stereo not drawn) [Compound 27, N^2-cycloheptyl-N^4-[(1-ethyl-2-pyrrolidinyl)methyl]-N^6-[4-(4-morpholinyl)phenyl]-1,3,5-triazine-2,4,6-triamine] | 1 | 3 |  | 
18 | CCN1CCCC1CNc1nc(Nc2ccc(OC)c(F)c2)nc(N2CCCC2)n1 (stereo not drawn) [Compound 57, N^2-[(1-ethyl-2-pyrrolidinyl)methyl]-N^4-(3-fluoro-4-methoxyphenyl)-6-(1-pyrrolidinyl)-1,3,5-triazine-2,4-diamine] | 25 | 1 |  | 
19 | CCN1CCCC1CNc1nc(NC2CCCCCC2)nc(N(C)c2cccc(Cl)c2)n1 (stereo not drawn) [Compound 45, N^2-(3-chlorophenyl)-N^4-cycloheptyl-N^6-[(1-ethyl-2-pyrrolidinyl)methyl]-N^2-methyl-1,3,5-triazine-2,4,6-triamine] | 1 |  |  | 
20 | CCN1CCCC1CNc1nc(Nc2ccc3ncccc3c2)nc(NC2CCCCCC2)n1 (stereo not drawn) [Compound 4, N^2-cycloheptyl-N^4-[(1-ethyl-2-pyrrolidinyl)methyl]-N^6-(6-quinolinyl)-1,3,5-triazine-2,4,6-triamine] | 1 |  |  | 
21 | CCN1CCCC1CNc1nc(NC2CCCCCC2)nc(N(C)c2ccc(OC)cc2)n1 (stereo not drawn) [Compound 42, N^2-cycloheptyl-N^4-[(1-ethyl-2-pyrrolidinyl)methyl]-N^6-(4-methoxyphenyl)-N^6-methyl-1,3,5-triazine-2,4,6-triamine] | 1 | 1 |  | 
22 | CCN1CCCC1CNc1nc(NCCN(C)C)nc(Nc2ccc(OC)c(F)c2)n1 (stereo not drawn) [Compound 68, N^2-[2-(dimethylamino)ethyl]-N^4-[(1-ethyl-2-pyrrolidinyl)methyl]-N^6-(3-fluoro-4-methoxyphenyl)-1,3,5-triazine-2,4,6-triamine] | 40 | 1 | 7.7 | 

Source: patent US7169785B2, “Methods and compositions of novel triazine compounds” (Reddy US Therapeutics, Inc., priority 2001, dated 2007)
